In patent US10988477B2 (Merck Patent GmbH, priority 2018, dated 2021) one finds Ki and IC50 data, which are given here for 27 molecules.

One assay addresses GCN2 kinase (Homo sapiens, UniProt Q9P2K8). Briefly: GCN2 enzyme inhibition assay (Transcreener ADP2 fluorescence polarization). The format is biochemical. Conditions: compounds of Formula II; 280 μM ATP, 4 nM GCN2 kinase. The method in brief: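 ADP formation read by Transcreener FP after a 1 h, 25 °C kinase reaction containing 280 μM ATP, 200 μM (RS)7 substrate and 4 nM GCN2, pH 7.5 Tris buffer. Compounds (0–8 μM final) were added 10 min before ATP. Percent inhibition gave IC50 and apparent Ki via tight-binding fit.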
For orientation: Fluorescence polarisation rises when a labelled molecule tumbles more slowly, as on binding a larger partner.

The target in assay [1] is intracellular GCN2 (phosphorylation of the GCN2 substrate eIF2α) (Homo sapiens, UniProt Q9P2K8). Kind of assay: GCN2 cellular inhibition assay (AlphaScreen SureFire P-eIF2α Ser51, borrelidin-treated U2OS cells). Format: cell-based. As to conditions: compounds of Formula II; biomarker assay, phosphorylated eIF2α Ser51 in borrelidin-treated U2OS cells. The method in brief: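 Phospho-eIF2α (Ser51) in lysates was quantified by AlphaScreen SureFire after a 1 h, 37 °C treatment of U2OS cells with 10 μM borrelidin and compound at 4-fold dilutions starting from 40 μM final. Inhibition expressed in percent against wells stimulated by borrelidin alone.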
intracellular GCN2 (phosphorylation of the GCN2 substrate eIF2α), sequence (Q9P2K8 whole entry): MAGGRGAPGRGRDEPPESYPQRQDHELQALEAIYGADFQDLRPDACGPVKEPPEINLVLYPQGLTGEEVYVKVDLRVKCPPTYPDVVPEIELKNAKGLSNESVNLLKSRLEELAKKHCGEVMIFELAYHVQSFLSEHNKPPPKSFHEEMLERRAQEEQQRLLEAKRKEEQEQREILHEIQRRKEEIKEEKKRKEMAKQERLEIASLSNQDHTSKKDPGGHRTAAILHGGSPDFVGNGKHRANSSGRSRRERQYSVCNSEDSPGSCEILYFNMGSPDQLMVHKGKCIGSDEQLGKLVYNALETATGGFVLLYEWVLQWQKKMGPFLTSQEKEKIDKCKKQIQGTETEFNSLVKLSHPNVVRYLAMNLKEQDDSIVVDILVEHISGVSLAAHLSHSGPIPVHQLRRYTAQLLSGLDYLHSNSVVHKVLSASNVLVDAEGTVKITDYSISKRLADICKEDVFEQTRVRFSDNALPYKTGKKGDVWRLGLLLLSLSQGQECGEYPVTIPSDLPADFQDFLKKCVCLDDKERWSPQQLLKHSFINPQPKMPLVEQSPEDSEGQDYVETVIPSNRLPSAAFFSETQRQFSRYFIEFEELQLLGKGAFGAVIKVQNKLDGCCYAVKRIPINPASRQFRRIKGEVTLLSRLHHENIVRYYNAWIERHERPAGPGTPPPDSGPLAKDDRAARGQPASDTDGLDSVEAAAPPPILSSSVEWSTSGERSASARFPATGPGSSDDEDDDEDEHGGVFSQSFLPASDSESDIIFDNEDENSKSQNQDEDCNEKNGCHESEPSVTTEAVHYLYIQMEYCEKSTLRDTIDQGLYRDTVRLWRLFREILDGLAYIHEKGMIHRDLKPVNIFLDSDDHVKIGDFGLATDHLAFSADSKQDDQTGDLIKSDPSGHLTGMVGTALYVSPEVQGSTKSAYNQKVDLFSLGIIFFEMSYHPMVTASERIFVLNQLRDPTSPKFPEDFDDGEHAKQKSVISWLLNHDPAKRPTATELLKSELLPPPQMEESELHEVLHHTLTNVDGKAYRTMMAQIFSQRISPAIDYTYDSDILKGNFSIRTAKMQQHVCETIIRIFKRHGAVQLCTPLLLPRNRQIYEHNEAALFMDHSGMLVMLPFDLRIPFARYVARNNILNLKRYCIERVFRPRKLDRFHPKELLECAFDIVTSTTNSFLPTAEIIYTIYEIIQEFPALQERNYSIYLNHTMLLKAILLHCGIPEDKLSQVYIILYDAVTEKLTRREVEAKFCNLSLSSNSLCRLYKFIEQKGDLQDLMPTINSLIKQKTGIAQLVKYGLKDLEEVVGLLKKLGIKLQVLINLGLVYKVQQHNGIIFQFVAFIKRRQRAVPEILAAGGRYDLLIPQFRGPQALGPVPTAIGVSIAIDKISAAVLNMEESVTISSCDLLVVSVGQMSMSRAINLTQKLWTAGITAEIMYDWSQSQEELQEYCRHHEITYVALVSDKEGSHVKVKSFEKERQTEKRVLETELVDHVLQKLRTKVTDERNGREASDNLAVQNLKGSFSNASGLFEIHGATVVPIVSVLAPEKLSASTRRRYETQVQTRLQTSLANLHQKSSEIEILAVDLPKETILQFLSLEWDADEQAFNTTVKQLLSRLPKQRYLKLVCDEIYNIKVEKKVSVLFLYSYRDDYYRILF
A general note: Bead proximity is the source of the signal in Alpha formats.

GCN2 kinase, sequence (Q9P2K8 whole entry): as above

For orientation: Ki means a dissociation constant, usually derived from enzyme kinetics or from competition with a known ligand. Lower therefore signals higher affinity. By IC50 is commonly meant the concentration at which inhibition is half-maximal. Molecule `O=S(=O)(NCC1CCCN(c2cc(-c3cnc4ccc(C(F)F)nn34)ncn2)C1)C1CNC1` (stereo not drawn) [II-272, N-((1-(6-(6-(Difluoromethyl)imidazo[1,2-b]pyridazin-3-yl)pyrimidin-4-yl)piperidin-3-yl)methyl)azetidine-3-sulfonamide] yielded a Ki at GCN2 kinase of 0.01 to 1 µM. This molecule showed an IC50 in assay [1] of over 5 µM.

`CS(=O)(=O)N1CC2(CN(c3cc(-c4cnc5ccc(C(F)F)nn45)ncn3)CCO2)C1` [II-273, 8-(6-(6-(Difluoromethyl)imidazo[1,2-b]pyridazin-3-yl)pyrimidin-4-yl)-2-(methylsulfonyl)-5-oxa-2,8-diazaspiro[3.5]nonane]: the Ki on GCN2 kinase is 0.01 to 1 µM. Moreover, the IC50 in assay [1] lay within 0.5 to 5 µM.

With `FC(F)c1ccc2ncc(-c3cc(N4CCC5C(C4)C5(F)F)ncn3)n2n1` (stereo not drawn) [II-274, 3-(6-(7,7-Difluoro-3-azabicyclo[4.1.0]heptan-3-yl)pyrimidin-4-yl)-6-(difluoromethyl)imidazo[1,2-b]pyridazine], the inhibition constant Ki on GCN2 kinase lay within 0.01 to 1 µM. Further, in assay [1], the IC50 was over 5 µM.

With `CS(=O)(=O)N1CCCC2(CN(c3cc(-c4cnc5ccc(C(F)F)nn45)ncn3)C2)C1` [II-279, 6-(Difluoromethyl)-3-(6-(6-(methylsulfonyl)-2,6-diazaspiro[3.5]nonan-2-yl)pyrimidin-4-yl)imidazo[1,2-b]pyridazine], the inhibition constant (Ki) at GCN2 kinase was 0.01 to 1 µM. This molecule yielded an IC50 in assay [1] of over 5 µM.

Consider `CS(=O)(=O)N1CCOC2(CN(c3cc(-c4cnc5ccc(C(F)F)nn45)ncn3)C2)C1` [II-280, 2-(6-(6-(Difluoromethyl)imidazo[1,2-b]pyridazin-3-yl)pyrimidin-4-yl)-8-(methylsulfonyl)-5-oxa-2,8-diazaspiro[3.5]nonane], for which, at GCN2 kinase, the inhibitory constant (Ki) fell in the range of 0.01 to 1 µM. The molecule also showed a half-inhibitory concentration (IC50) in assay [1] of over 5 µM.

On GCN2 kinase, `CS(=O)(=O)N1CC2(CCCN(c3cc(-c4cnc5ccc(C(F)F)nn45)ncn3)C2)C1` [II-281, 6-(Difluoromethyl)-3-(6-(2-(methylsulfonyl)-2,6-diazaspiro[3.5]nonan-6-yl)pyrimidin-4-yl)imidazo[1,2-b]pyridazine] returned a Ki of under 0.01 µM. The molecule further came in with a 50% inhibitory concentration (IC50) in assay [1] of under 0.5 µM.

On GCN2 kinase, `CS(=O)(=O)N1CC2CCN(c3cc(-c4cnc5ccc(C(F)F)nn45)ncn3)C2C1` (stereo not drawn) [II-282, 6-(Difluoromethyl)-3-(6-(5-(methylsulfonyl)hexahydropyrrolo[3,4-b]pyrrol-1 (2H)-yl)pyrimidin-4-yl)imidazo[1,2-b]pyridazine] came in with an inhibition constant Ki of 0.01 to 1 µM. In assay [1], this molecule displayed an IC50 of over 5 µM.

Take `NS(=O)(=O)CCC1CCCCN1c1cc(-c2cnc3ccc(C(F)F)nn23)ncn1` (stereo not drawn) [II-283, 2-(1-(6-(6-(Difluoromethyl)imidazo[1,2-b]pyridazin-3-yl)pyrimidin-4-yl)piperidin-2-yl)ethane-1-sulfonamide]: on GCN2 kinase, the inhibition constant (Ki) lay in the range of 0.01 to 1 µM. Also, the IC50 in assay [1] is over 5 µM.

`NS(=O)(=O)N1CCCC2(CN(c3cc(-c4cnc5ccc(C(F)F)nn45)ncn3)C2)C1` [II-284, 2-(6-(6-(Difluoromethyl)imidazo[1,2-b]pyridazin-3-yl)pyrimidin-4-yl)-2,6-diazaspiro[3.5]nonane-6-sulfonamide]: the Ki on GCN2 kinase was in the range of 0.01 to 1 µM. In assay [1], this molecule had a concentration for half-maximal inhibition (IC50) of over 5 µM.

In the case of `NS(=O)(=O)N1CCOC2(CN(c3cc(-c4cnc5ccc(C(F)F)nn45)ncn3)C2)C1` [II-285, 2-(6-(6-(Difluoromethyl)imidazo[1,2-b]pyridazin-3-yl)pyrimidin-4-yl)-5-oxa-2,8-diazaspiro[3.5]nonane-8-sulfonamide], at GCN2 kinase, the Ki lay within 0.01 to 1 µM. Moreover, in assay [1], the IC50 is over 5 µM.

For `NS(=O)(=O)N1CC2CCN(c3cc(-c4cnc5ccc(C(F)F)nn45)ncn3)C2C1` (stereo not drawn) [II-286, 1-(6-(6-(Difluoromethyl)imidazo[1,2-b]pyridazin-3-yl)pyrimidin-4-yl)hexahydropyrrolo[3,4-b]pyrrole-5(1H)-sulfonamide], the inhibition constant Ki on GCN2 kinase lay in the range of 0.01 to 1 µM. In addition, the IC50 in assay [1] was over 5 µM.

Molecule `CS(=O)(=O)N1CCC2(CC1)CN(c1cc(-c3cnc4ccc(C(F)F)nn34)ncn1)CCO2` [II-287, 4-(6-(6-(Difluoromethyl)imidazo[1,2-b]pyridazin-3-yl)pyrimidin-4-yl)-9-(methylsulfonyl)-1-oxa-4,9-diazaspiro[5.5]undecane] returned a Ki on GCN2 kinase of 0.01 to 1 µM. In assay [1], this molecule had an IC50 of over 5 µM.

Turning to `CS(=O)(=O)N1CCCC2(CN(c3cc(-c4cnc5ccc(C(F)F)nn45)ncn3)CCO2)C1` (stereo not drawn) [II-288, 4-(6-(6-(Difluoromethyl)imidazo[1,2-b]pyridazin-3-yl)pyrimidin-4-yl)-8-(methylsulfonyl)-1-oxa-4,8-diazaspiro[5.5]undecane], the inhibition constant (Ki) at GCN2 kinase was in the range of 0.01 to 1 µM. The molecule also came in with a 50% inhibitory concentration (IC50) in assay [1] of over 5 µM.

At GCN2 kinase, `O=S(=O)(NCC1CCCN(c2cc(-c3cnc4ccc(C(F)F)nn34)ncn2)C1)C1COC1` (stereo not drawn) [II-289, N-((1-(6-(6-(Difluoromethyl)imidazo[1,2-b]pyridazin-3-yl)pyrimidin-4-yl)piperidin-3-yl)methyl)oxetane-3-sulfonamide] displayed a Ki of 0.01 to 1 µM. The IC50 in assay [1] lay within 0.5 to 5 µM.

`CN(C[C@@H]1CN(c2cc(-c3cnc4ccc(C(F)F)nn34)ncn2)CCO1)S(C)(=O)=O` [II-290, (S)—N-((4-(6-(6-(Difluoromethyl)imidazo[1,2-b]pyridazin-3-yl)pyrimidin-4-yl)morpholin-2-yl)methyl)-N-methylmethanesulfonamide] yielded an inhibition constant (Ki) on GCN2 kinase of 0.01 to 1 µM. Also, the IC50 in assay [1] lay within 0.5 to 5 µM.

In turn, `CS(=O)(=O)NC[C@H]1CCCN(c2cc(-c3cnc4ccc(C(F)(F)F)nn34)ncn2)C1` [II-291, (S)—N-((1-(6-(6-(Trifluoromethyl)imidazo[1,2-b]pyridazin-3-yl)pyrimidin-4-yl)piperidin-3-yl)methyl)methanesulfonamide] displayed an inhibitory constant (Ki) on GCN2 kinase of under 0.01 µM. The concentration for half-maximal inhibition (IC50) in assay [1] is under 0.5 µM.

As for `CS(=O)(=O)NC[C@@H]1CN(c2cc(-c3cnc4ccc(C(F)(F)F)nn34)ncn2)CCO1` [II-292, (S)—N-((4-(6-(6-(Trifluoromethyl)imidazo[1,2-b]pyridazin-3-yl)pyrimidin-4-yl)morpholin-2-yl)methyl)methanesulfonamide], the inhibition constant Ki at GCN2 kinase was 0.01 to 1 µM. This molecule came in with an IC50 in assay [1] of 0.5 to 5 µM.

Turning to `CC1CN(c2cc(-c3cnc4ccc(C(F)(F)F)nn34)ncn2)CC(CNS(C)(=O)=O)C1(F)F` (stereo not drawn) [II-293, N-((4,4-Difluoro-5-methyl-1-(6-(6-(trifluoromethyl)imidazo[1,2-b]pyridazin-3-yl)pyrimidin-4-yl)piperidin-3-yl)methyl)methanesulfonamide], the inhibition constant Ki at GCN2 kinase lay within 0.01 to 1 µM. The IC50 in assay [1] fell in the range of 0.5 to 5 µM.

For `CC1CN(c2cc(-c3cnc4ccc(C(F)(F)F)nn34)ncn2)CC(CNS(C)(=O)=O)C1(F)F` (stereo not drawn) [II-294, N-((4,4-Difluoro-5-methyl-1-(6-(6-(trifluoromethyl)imidazo[1,2-b]pyridazin-3-yl)pyrimidin-4-yl)piperidin-3-yl)methyl)methanesulfonamide], at GCN2 kinase, the Ki fell in the range of 0.01 to 1 µM. This molecule came in with an IC50 in assay [1] of over 5 µM.

`O=S1(=O)CCN(c2cc(-c3cnc4ccc(C(F)F)nn34)ncn2)CC1` [II-295, 4-(6-(6-(Difluoromethyl)imidazo[1,2-b]pyridazin-3-yl)pyrimidin-4-yl)thiomorpholine 1,1-dioxide] displayed a Ki on GCN2 kinase of over 1 µM. Besides, the concentration for half-maximal inhibition (IC50) in assay [1] was over 5 µM.

With `[O-][S+]1CCN(c2cc(-c3cnc4ccc(C(F)F)nn34)ncn2)CC1` [II-296, 4-(6-(6-(Difluoromethyl)imidazo[1,2-b]pyridazin-3-yl)pyrimidin-4-yl)thiomorpholine 1-oxide], at GCN2 kinase, the Ki was over 1 µM. Further, the IC50 in assay [1] is over 5 µM.

Molecule `OC[C@@H]1CN(c2cc(-c3cnc4ccc(C(F)F)nn34)ncn2)C[C@@H](C(F)(F)F)O1` [II-297, ((2S,6S)-4-(6-(6-(Difluoromethyl)imidazo[1,2-b]pyridazin-3-yl)pyrimidin-4-yl)-6-(trifluoromethyl)morpholin-2-yl)methanol] returned a Ki on GCN2 kinase of 0.01 to 1 µM. The same molecule yielded an IC50 in assay [1] of 0.5 to 5 µM.

In turn, `OC[C@H]1CN(c2cc(-c3cnc4ccc(C(F)F)nn34)ncn2)C[C@@H](C(F)(F)F)O1` [II-298, ((2R,6S)-4-(6-(6-(Difluoromethyl)imidazo[1,2-b]pyridazin-3-yl)pyrimidin-4-yl)-6-(trifluoromethyl)morpholin-2-yl)methanol] yielded an inhibition constant (Ki) on GCN2 kinase of 0.01 to 1 µM. Also, the IC50 in assay [1] lay in the range of 0.5 to 5 µM.

Take `N#CCC1CCCN(c2cc(-c3cnc4ccc(C(F)F)nn34)ncn2)C1` (stereo not drawn) [II-299, 2-(1-(6-(6-(Difluoromethyl)imidazo[1,2-b]pyridazin-3-yl)pyrimidin-4-yl)piperidin-3-yl)acetonitrile]: the Ki on GCN2 kinase was in the range of 0.01 to 1 µM. This molecule displayed an IC50 in assay [1] of 0.5 to 5 µM.

On to `CS(=O)(=O)NC[C@H]1CCCN(c2cc(-c3cnc4ccc(C(F)F)nn34)ncn2)C1` [II-300, (S)—N-((1-(6-(6-(Difluoromethyl)imidazo[1,2-b]pyridazin-3-yl)pyrimidin-4-yl)piperidin-3-yl)methyl)methanesulfonamide], for which, at GCN2 kinase, the Ki is under 0.01 µM. Moreover, the 50% inhibitory concentration (IC50) in assay [1] was under 0.5 µM.

Regarding `FC(F)c1ccc2ncc(-c3cc(N4CCOC5CC54)ncn3)n2n1` (stereo not drawn) [II-301, 5-(6-(6-(Difluoromethyl)imidazo[1,2-b]pyridazin-3-yl)pyrimidin-4-yl)-2-oxa-5-azabicyclo[4.1.0]heptane], on GCN2 kinase, the inhibitory constant (Ki) was in the range of 0.01 to 1 µM. In assay [1], this molecule came in with a half-inhibitory concentration (IC50) of 0.5 to 5 µM.

Turning to `CS(=O)(=O)NC[C@H]1CN(c2cc(-c3cnc4ccc(C(F)F)nn34)ncn2)C[C@@H](C(F)(F)F)O1` [II-306, N-(((2R,6S)-4-(6-(6-(Difluoromethyl)imidazo[1,2-b]pyridazin-3-yl)pyrimidin-4-yl)-6-(trifluoromethyl)morpholin-2-yl)methyl)methanesulfonamide], the inhibitory constant (Ki) at GCN2 kinase lay within 0.01 to 1 µM. In addition, the IC50 in assay [1] lay within 0.5 to 5 µM.
